Assay type in all cases: cell-based
The test system of experiment [1] is human colon adenocarcinoma cells (SW620). In words: Aminolevulinic acid (with FeCl2 and ascorbic acid) labeling, fluorescence microscopy image analysis (positive rate). As to conditions: hemolyzed, 0.3 mM, 60 min, 37° C., threshold value 207. An excerpt: (§1) The number of the cells was counted using a hemacytometer in accordance with the conventional method, and then 10^5 to 10^6 cells per sample (cell suspension) was aliquoted. The sample was centrifuged to remove the supernatant. Subsequently, aminolevulinic acid 5-AMINOLEVULINATE HYDROCHLORIDE (trade name, Cosmo Bio Co., Ltd., at the final concentration given in Table 7 or 8) dissolved in Dulbecco's PBS (+) and FeCl2 and ascorbic acid having the same concentration as that of aminolevulinic acid, respectively, were added thereto, and the cells were suspended well. The number of the cells was adjusted, and then the cells were added dropwise to a 384-well plate. The plate was centrifuged to spin down the cells. The image was captured with a fluorescence microscope (Nikon Corp.).
(§2) The wavelengths for the fluorescence filter set: EX (excitation wavelength): 402±7.5, DM: 430 or longer, BA (fluorescence wavelength): 625±15.
(§3) The acquired images were analyzed using an image analysis software NIS-ELEMENTS (trade name, Nikon Corp.) to evaluate the fluorescence intensity of the cell.
(§4) In a manner similar to Example 4, each of human breast adenocarcinoma cells (Cell line name: MCF-7; DS Pharma Biomedical Co., Ltd.), human colon adenocarcinoma cells (Cell line name: SW620; DS Pharma Biomedical Co., Ltd.), human prostate cancer cells (Cell line name: PC3; DS Pharma Biomedical Co., Ltd.), human alveolar epithelial cancer cells (Cell line name: NCI-H358; DS Pharma Biomedical Co., Ltd.), human gastric cancer cells (Cell line name: SNU-1; ATCC) and human fibrosarcoma cells (Cell line name: HT1080; DS Pharma Biomedical Co., Ltd.) was detected with aminolevulinic acid.

Experiment [2] relates to human alveolar epithelial cancer cells (NCI-H358). Described as above. As to conditions: hemolyzed, 0.3 mM, 60 min, 37° C., threshold value 212.
Excerpt: as §1, §2, §3, §4

In experiment [3] the test system is human fibrosarcoma cells (HT1080). The experiment is described as above. The following applies: hemolyzed, 0.3 mM, 60 min, 37° C., threshold value 203.
Excerpt: as §1, §2, §3, §4

Experiment [4] has as its system human breast adenocarcinoma cells (MCF-7). The experiment is described as above. The following applies: hemolyzed, 0.3 mM, 60 min, 37° C., threshold value 268.
Excerpt: as §1, §2, §3, §4

The subject of experiment [5] is human colon adenocarcinoma cells (SW620). In words: Labeled sugar incorporation, fluorescence microscopy image analysis (positive rate). The following applies: threshold value 280. On the procedure: (§5) The number of the cells was counted for each cell line using a hemacytometer in accordance with the conventional method, and then 10^5 to 10^6 cells per sample (cell suspension) was aliquoted. Each of the sample was centrifuged to remove the supernatant. Subsequently, 2-NBDG (Wako Pure Chemical Industries, Ltd.; at the final concentration given in Table 3 or 4) dissolved in Dulbecco's PBS (−) was added thereto, and the cells were suspended well. After the reaction, Dulbecco's PBS (−) was added to the mixture, and the resultant was centrifuged to remove the supernatant. The cells were resuspended with Dulbecco's PBS (−) and centrifuged, and the supernatant was removed again. The steps of resuspending cells with Dulbecco's PBS (−), centrifuging and removing the supernatant were then repeated 2 to 3 times, thereby washing the cells thoroughly. The cells were resuspended with Dulbecco's PBS (−), the concentration thereof was adjusted, and then added dropwise to a 384-well plate. The plate was centrifuged to spin down the cells. The image was captured with a fluorescence microscope (Nikon Corp.) using B-2A filter combination (Nikon Corp.). The B-2A set covers the following wavelengths. EX (excitation wavelength): 475±15 nm, DM: 505 nm or longer, BA (fluorescence wavelength) 520 nm or longer.
as §3
(§6) In a manner similar to Example 2, each of human breast adenocarcinoma cells (cell line name: MCF-7; DS Pharma Biomedical Co., Ltd.), human colon adenocarcinoma cells (cell line name: SW620; DS Pharma Biomedical Co., Ltd.), human prostate cancer cells (cell line name: PC3; DS Pharma Biomedical Co., Ltd.), human alveolar epithelial cancer cells (cell line name: NCI-H358; DS Pharma Biomedical Co., Ltd.), human gastric cancer cells (cell line name: SNU-1; ATCC) and human fibrosarcoma cells (cell line name: HT1080; DS Pharma Biomedical Co., Ltd.) was detected with the labeled sugar (2-NBDG).

For experiment [6], the system named is human prostate cancer cells (PC3). The experiment is described as above. The following applies: hemolyzed, 10 mM, 5 min, 23° C., threshold value 880. Here is the method: as §5, §3, §6
For experiment [7], the system named is human alveolar epithelial cancer cells (NCI-H358). Described as above. The following applies: hemolyzed, 10 mM, 5 min, 23° C., threshold value 370. Here is the method: as §5, §3, §6
Experiment [8] relates to human breast adenocarcinoma cells (MCF-7). Described as above. The following applies: hemolyzed, 10 mM, 5 min, 23° C., threshold value 330. Here is the method: as §5, §3, §6

For `NCC(=O)CCC(=O)O` [aminolevulinic acid, 5-amino-4-oxopentanoic acid], the “Positive rate (Cancer cells)” value in experiment [1] was determined as 97.0%; in experiment [2] it was 94.4%; in experiment [3], 94.6%; in experiment [4] it was 86.7%.
With `O=[N+]([O-])c1ccc(N[C@H]2C(O)O[C@H](CO)[C@@H](O)[C@@H]2O)c2nonc12` (stereo partly drawn) [2-NBDG, 2-[N-(7-nitrobenz-2-oxa-1,3-diazol-4-yl)amino]-2-deoxy-D-glucose], the “Positive rate (Cancer cells)” value in experiment [5] (hemolyzed, 10 mM, 5 min, 23° C.) is on record as 100.0%; in experiment [5] (single, Glucose conc.: 1 mM, Temp.: 37° C., Time: 30 min) it was 100.0%; in experiment [6], 69.8%; in experiment [7], 83.0%; in experiment [8] it was 100.0%.
